Test results taken from patent publication US9957267B2, “Somatostatin modulators and uses thereof” (Crinetics Pharmaceuticals, Inc., priority 2015, dated 2018).

Key:
Format in all cases: cell-based
[1] = molecular target: T1, human somatostatin receptor subtype 2a (Homo sapiens, UniProt P30874); test: cAMP assay for SSTR2a agonists (HTRF cAMP kit, NKH-477 stimulated); details: CHO cells stably expressing human SSTR2a, 1.6 μM NKH-477
T1 construct: expressed in transfected cells
Protocol: Chinese hamster ovary (CHO) cells stably expressing one of the six human or rodent somatostatin receptor subtypes are grown to 85-100% confluence on standard tissue culture dishes in F12-Ham's growth media (Hyclone) with following additives: 10% donor calf serum (Hyclone), 200 U/mL penicillin (Hyclone), 200 μg/mL streptomycin (Hyclone), 20 mM HEPES (Hyclone), 200 μg/mL hygromycin Hyclone.
General overview: All SSTR subtypes are Gi coupled G-protein coupled receptors (GPCRs) that lead to decreases in intracellular cyclic AMP (cAMP) when activated by an agonist. Therefore, measurement of intracellular cAMP levels can be used to assess whether compounds of the invention are agonists of SSTR subtypes (John Kelly, Troy Stevens, W. Joseph Thompson, and Roland Seifert, Current Protocols in Pharmacology, 2005, 2.2.1-2.2). One example of an intracellular cAMP assay is described below.
Four days prior to the assay, 5000 Chinese hamster ovary (CHO) cells stably expressing the human somatostatin receptor subtype 2a are plated in each well of a 96-well tissue culture plate (Nest Biotech Cell, flat bottom with low evaporation tissue culture treated; Polystyrene; Non-Pyrogenic) in F12-Ham's media (100 μL/well) supplemented with 200 μg/mL of hygromycin. Incubate at 37 C, 5% CO2, 95% humidity for four days. The cells should reach full confluence. On the day of the assay, various dilutions of the compounds of the invention are prepared in assay buffer (HRTF cAMP kit, Cisbio) in the presence of 1.6 μM NKH-477 (a water-soluble forskolin derivative) and 50 μL of the dilutions are added to the cultured cells and incubated for 20 minutes at 37° C. […] 50 μL of lysis buffer (HRTF cAMP kit, Cisbio) is added to each well and incubated at room temperature for 30 minutes, after which 150 μL assay buffer is added to each well. In a 384-well plate (Grenier, 784-080), 10 μL of assay mixture is added to 10 μL of developing mixture, containing cAMP detection and visualization antibodies are added and the assay is allowed incubate for 1-24 hours at room temperature. The intracellular cAMP concentrations are then measured using a commercially available detection kit (for example, the cAMP HTRF kit, Cisbio). The measured intracellular cAMP concentrations are plotted vs. the concentration of the compounds of the invention and the EC50 of the compounds are calculated using standard methods.

SSTR5 = molecular target: T2, SSTR5 (Homo sapiens, UniProt P35346); test: cAMP functional agonist assay, CHO cells expressing SSTR5; details: CHO cells stably expressing SSTR5, cAMP
T2 construct: expressed in transfected cells
T2 sequence (P35346 whole entry): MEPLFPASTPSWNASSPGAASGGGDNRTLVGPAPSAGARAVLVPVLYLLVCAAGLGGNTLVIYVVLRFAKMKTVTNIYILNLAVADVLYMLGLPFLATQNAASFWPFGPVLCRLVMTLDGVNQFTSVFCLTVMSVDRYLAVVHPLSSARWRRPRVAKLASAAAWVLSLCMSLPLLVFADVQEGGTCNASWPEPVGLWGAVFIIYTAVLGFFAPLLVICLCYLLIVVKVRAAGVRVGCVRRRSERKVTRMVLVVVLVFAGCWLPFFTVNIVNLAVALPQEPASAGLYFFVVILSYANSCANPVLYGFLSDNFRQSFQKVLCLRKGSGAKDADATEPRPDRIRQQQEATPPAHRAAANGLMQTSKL
Procedure, shortened: (§1)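 CHO cells stably expressing a single somatostatin receptor subtype, grown to 85–100% confluence in F12-Ham's with 10% donor calf serum and hygromycin. Agonism assessed as a decrease in intracellular cAMP via Gi coupling.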

SSTR3 = SSTR3 (UniProt P32745); test: cAMP functional agonist assay, CHO cells expressing SSTR3; details: CHO cells stably expressing SSTR3, cAMP
Chain of SSTR3 (P32745 whole entry): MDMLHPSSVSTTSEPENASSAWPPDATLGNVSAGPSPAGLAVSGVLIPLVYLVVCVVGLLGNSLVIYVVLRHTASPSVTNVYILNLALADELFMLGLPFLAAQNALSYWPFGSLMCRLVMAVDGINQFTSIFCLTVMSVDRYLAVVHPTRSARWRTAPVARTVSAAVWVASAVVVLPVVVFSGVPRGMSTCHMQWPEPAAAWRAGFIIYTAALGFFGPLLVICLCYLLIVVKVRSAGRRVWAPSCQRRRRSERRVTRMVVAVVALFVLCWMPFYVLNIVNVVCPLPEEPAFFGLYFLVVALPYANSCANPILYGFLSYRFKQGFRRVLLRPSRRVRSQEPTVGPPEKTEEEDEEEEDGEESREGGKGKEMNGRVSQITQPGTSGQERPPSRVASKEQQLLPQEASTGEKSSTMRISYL
Procedure, shortened: as §1

SSTR4 = molecular target: T3, SSTR4 (Homo sapiens, UniProt P31391); test: cAMP functional agonist assay, CHO cells expressing SSTR4; details: CHO cells stably expressing SSTR4, cAMP; read-out: SSTR4 EC50
T3 construct: expressed in transfected cells
T3 sequence (P31391 whole entry): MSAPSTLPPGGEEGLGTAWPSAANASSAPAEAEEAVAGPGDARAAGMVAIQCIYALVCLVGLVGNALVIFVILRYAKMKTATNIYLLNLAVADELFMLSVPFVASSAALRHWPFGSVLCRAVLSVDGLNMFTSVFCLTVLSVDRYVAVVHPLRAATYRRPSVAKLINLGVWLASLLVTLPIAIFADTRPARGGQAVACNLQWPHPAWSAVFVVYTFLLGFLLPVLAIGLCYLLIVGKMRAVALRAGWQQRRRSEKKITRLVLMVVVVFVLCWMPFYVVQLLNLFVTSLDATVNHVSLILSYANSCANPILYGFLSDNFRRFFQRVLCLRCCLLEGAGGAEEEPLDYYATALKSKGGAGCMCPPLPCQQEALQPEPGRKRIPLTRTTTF
Procedure, shortened: (§2)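 CHO cells stably expressing the human or rodent somatostatin receptor subtype. Agonism measured as decrease in intracellular cAMP via Gi coupling.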

SSTR1 = molecular target: T4, SSTR1 (Homo sapiens, UniProt P30872); test: cAMP functional agonist assay, CHO cells expressing SSTR1; details: CHO cells stably expressing SSTR1, cAMP; read-out: SSTR1 EC50
T4 construct: expressed in transfected cells
T4 sequence (P30872 whole entry): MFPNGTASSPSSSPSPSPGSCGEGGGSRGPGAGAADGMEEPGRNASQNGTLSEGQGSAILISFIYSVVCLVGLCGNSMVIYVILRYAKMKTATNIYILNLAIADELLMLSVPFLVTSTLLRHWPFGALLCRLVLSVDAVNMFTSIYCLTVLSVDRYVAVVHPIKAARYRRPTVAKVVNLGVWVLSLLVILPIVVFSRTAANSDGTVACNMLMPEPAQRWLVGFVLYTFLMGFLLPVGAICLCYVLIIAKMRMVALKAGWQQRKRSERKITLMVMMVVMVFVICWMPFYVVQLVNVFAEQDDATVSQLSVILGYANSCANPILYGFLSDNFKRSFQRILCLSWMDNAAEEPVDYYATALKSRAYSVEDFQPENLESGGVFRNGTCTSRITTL
Procedure, shortened: as §2

T1 sequence (P30874 whole entry): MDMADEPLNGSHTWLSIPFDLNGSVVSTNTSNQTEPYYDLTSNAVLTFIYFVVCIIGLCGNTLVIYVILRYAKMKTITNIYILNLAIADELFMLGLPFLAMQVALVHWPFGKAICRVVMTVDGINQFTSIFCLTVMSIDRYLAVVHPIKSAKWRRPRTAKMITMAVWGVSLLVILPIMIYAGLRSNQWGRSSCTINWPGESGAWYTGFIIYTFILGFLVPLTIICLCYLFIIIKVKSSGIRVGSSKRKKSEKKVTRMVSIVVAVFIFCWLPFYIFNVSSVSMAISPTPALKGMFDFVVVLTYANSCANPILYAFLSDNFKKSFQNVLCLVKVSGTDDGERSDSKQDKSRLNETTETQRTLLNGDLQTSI

| Molecule | EC50 [1] | EC50 (SSTR5) | EC50 (SSTR3) | EC50 (SSTR4) | EC50 (SSTR1) |
| --- | --- | --- | --- | --- | --- |
| Cc1cc(Cl)cc(-c2cnc3nc(C)n(-c4cc(O)cc(F)c4)c(=O)c3c2CN(C)C[C@@H]2CCCN2)c1 [Compound A-59, 6-(3-chloro-5-methylphenyl)-3-(3-fluoro-5-hydroxyphenyl)-2-methyl-5-({methyl[(2S)-pyrrolidin-2-ylmethyl]amino}methyl)-3H,4H-pyrido[2,3-d]pyrimidin-4-one] | < 100 nM | 100 to 10000 nM | < 100 nM | < 100 nM | > 10000 nM |
| Cc1cc(Cl)cc(-c2cnc3ncn(-c4cc(O)ccc4F)c(=O)c3c2CN(C)C[C@@H]2CCCN2)c1 [Compound A-54, 6-(3-chloro-5-methylphenyl)-3-(2-fluoro-5-hydroxyphenyl)-5-({methyl[(2S)-pyrrolidin-2-ylmethyl]amino}methyl)-3H,4H-pyrido[2,3-d]pyrimidin-4-one] | < 100 nM | > 10000 nM | < 100 nM | < 100 nM | 100 to 10000 nM |
| Cc1cc(C)cc(-c2cnc3nc(C)n(-c4cc(O)cc(F)c4)c(=O)c3c2CN(C)C[C@@H]2CCCN2)c1 [Compound A-55, 6-(3,5-dimethylphenyl)-3-(3-fluoro-5-hydroxyphenyl)-2-methyl-5-({methyl[(2S)-pyrrolidin-2-ylmethyl]amino}methyl)-3H,4H-pyrido[2,3-d]pyrimidin-4-one] | < 100 nM | 100 to 10000 nM | 100 to 10000 nM | < 100 nM | > 10000 nM |
| Cc1cc(Cl)cc(-c2cnc3ncn(-c4cc(O)cc(F)c4)c(=O)c3c2CN(C)C[C@@H]2CCCCN2)c1 [Compound A-28, 6-(3-chloro-5-methylphenyl)-3-(3-fluoro-5-hydroxyphenyl)-5-({methyl[(2S)-piperidin-2-ylmethyl]amino}methyl)-3H,4H-pyrido[2,3-d]pyrimidin-4-one] | < 100 nM | 100 to 10000 nM | < 100 nM | < 100 nM | 100 to 10000 nM |
| Cc1cc(Cl)cc(-c2cnc3ncn(-c4cc(F)cc(C(N)=O)c4)c(=O)c3c2CN(C)C[C@@H]2CCCN2)c1 [Compound A-50, 3-[6-(3-chloro-5-methylphenyl)-5-({methyl[(2S)-pyrrolidin-2-ylmethyl]amino}methyl)-4-oxo-3H,4H-pyrido[2,3-d]pyrimidin-3-yl]-5-fluorobenzamide] | < 100 nM | > 10000 nM | 100 to 10000 nM | < 100 nM | 100 to 10000 nM |
| Cc1cc(Cl)cc(-c2cnc3nc(C(C)C)n(-c4cccc(O)c4)c(=O)c3c2CN(C)C[C@@H]2CCCN2)c1 [Compound A-58, 6-(3-chloro-5-methylphenyl)-3-(3-hydroxyphenyl)-5-({methyl[(2S)-pyrrolidin-2-ylmethyl]amino}methyl)-2-(propan-2-yl)-3H,4H-pyrido[2,3-d]pyrimidin-4-one] | < 100 nM | 100 to 10000 nM | 100 to 10000 nM | < 100 nM | 100 to 10000 nM |
| 5-({[(2S)-2-aminobutyl](methyl)amino}methyl)-6-(3,5-dimethylphenyl)-3-[3-hydroxy-5-(trifluoromethyl)phenyl]-3H,4H-pyrido[2,3-d]pyrimidin-4-one [Compound A-63] | < 100 nM | > 10000 nM | < 100 nM | < 100 nM | 100 to 10000 nM |
| Cc1cc(Cl)cc(-c2cnc3ncn(-c4cc(O)cc(C(F)(F)F)c4)c(=O)c3c2CN(C)C[C@@H]2CCCN2)c1 [Compound A-48, 6-(3-chloro-5-methylphenyl)-3-[3-hydroxy-5-(trifluoromethyl)phenyl]-5-({methyl[(2S)-pyrrolidin-2-ylmethyl]amino}methyl)-3H,4H-pyrido[2,3-d]pyrimidin-4-one] | < 100 nM | > 10000 nM | < 100 nM | < 100 nM | 100 to 10000 nM |
